In the assay the test system is mice subjected to restraint stress. Put plainly: Morris water maze learning test. The format is in vivo, male ICR mice. The following applies: mice after 6 hour restraint stress; TGA40S-containing diet from 3 weeks before, about 25 mg TGA40S (10 mg arachidonic acid) per mouse daily; five trials a day for 5 days; FIG. 1. From the text:
The experimental groups consisted of 56 two- to three-month-old male ICR mice, divided into a control diet group (27 mice) and a TGA40S-containing diet group (29 mice), with the control diet or TGA40S-containing diet shown in Table 1 being given to each group for 3 weeks. Each group was further divided into non-restrained groups (non-restrained control diet group (13), non-restrained arachidonic acid (ARA) diet group (15)) and restrained groups (restrained control diet group (14), restrained ARA diet group ([…])). The restraining was accomplished using a wire mesh restraining tube, once for a 6 hour period three weeks after the start of feeding. The control diet or TGA40S-containing diet shown in Table 1 continued to be fed to each group for the remaining experiment period. The TGA40S used for the TGA40S-containing diet was the product obtained in Example 1. Since the daily ingestion was approximately 5 g per mouse, the daily intake of TGA40S was 25 mg per mouse. Also, since the total fatty acids bonded to the arachidonic acid-containing oils or fats (triglycerides) prepared in Example 1 included 40 wt % arachidonic acid, the daily intake of arachidonic acid was 10 mg per mouse. […] The time required for the mouse to reach the escape platform (escape latency time) was recorded as the learning index.

In the case of `CCCCC/C=C\C/C=C\C/C=C\C/C=C\CCCC(=O)O` [arachidonic acid], the “learning ability (escape latency time, time required to reach the escape platform)” value is on record as “exhibits an improving effect against decline in learning ability or cognitive ability as a result of stress”.

(Values after US20070270493A1, “Composition with Preventive or Improvement Effect on Stress-Induced Brain Function Impairment and Related Symptoms or Diseases” (priority 2004, published 2007).)
